# Assay results taken from patent publication US5159069A, “Sulfated tannins and their salts” (Yamanouchi Pharmaceutical Co., Ltd., priority 1988, dated 1992).
# Tests used:
# [1] = tested on: avian myeloblastosis virus RTase; assay type: biochemical; settings: 37° C., 40 minutes
# Experimental: According to the method disclosed in Journal of Biological Chemistry, 1987, 262, p. 2187, the RTase inhibitory effect of the compounds of this invention is determined as follows:
# More specifically, the compound of the present invention was added, in various amount, to a reaction solution which comprised 80 mM of Tris buffer solution (pH 8), 6 mM of magnesium chloride, 80 mM of potassium chloride, 10 mM of dithiothreitol, 20 μg/ml of polyadenylic acid, 0.02 μg/ml of oligodeoxy thymidine, 20 μM of tritium-labeled deoxythymidine-triphosphate and avian myeloblastosis virus RTase so that the total volume of the resultant solution was equal to 100 μl. After the reaction solution was incubated at 37° C. for 40 minutes, 100 μl of an ice-cooled 10% trichloroacetic acid solution was added to the solution to stop the reaction.
# The reaction solution was filtered through a glass filter (Whatmann GF/C) and washed with a 10% trichloroacetic acid solution and then with ethanol. Thereafter, the glass filter was dried and examined by liquid scintillation counter.
# [2] = tested on: HTLV-IIIB-infected MT-4 cells; experiment: Inhibitory effect on expression of HIV-specific antigen (immunofluorescence); assay type: cell-based
# Experimental: After drying the cells cultured in Experiment 1 on a slide glass, they were fixed with methanol for 3 minutes and treated with human anti-HIV-III positive serum (IF antibody titer×4096) which was diluted 1/1,000 time at 37° C. for 30 minutes. Thereafter, it was washed with phosphate-buffered saline (PBS) for 15 minutes and treated with an anti-human IgG conjugated with fluorescein-isothiocyanate at 37° C. for 30 minutes. It was again washed with PBS and then the number of fluorescent cells, more specifically expressed HIV-specific virus antigen proteins were determined with a fluorescence microscope. "%" is a ratio of the number of fluorescent ray emitting cells to the number of total cells.
# [3] = tested on: MOLT-4 and MOLT-4/HIV HTLV-IIIB cells; experiment: Inhibitory effect on giant cell formation by mixed cultivation of MOLT-4 and MOLT-4/HIV HTLV-IIIB cells; assay type: cell-based, human; settings: 24 hours co-culture, co-culture control 18.5%
# Experimental: This experiment was performed by the recently developed method of Yamamoto et al. (see Yamamoto et al., Virology, 1988, 164, p. 542; and J. Clinical Microbiology, 1988, 26, p. 1229).
# MOLT-4 cells which are HTLV-I negative human T cell strain, and MOLT-4/HIVHT LV II IB cells which are persistently HIV-infected cells are separately cultured in a RPMI 1640 culture medium supplemented with 10% fetal calf serum to a cell density of 5×10^5 /ml respectively, these were mixed in a ratio of 1:1 and the drug was added thereto.
# The mixed culture medium was cultured at 37° C. for 24 hours in a carbon dioxide incubator and the distribution of cell size was determined by a Cell Multisizer (available from Coulter Electronics, Ltd., Luton, England).
# In Table IX, the rate of cell having a size of not less than 20 μm is expressed by "%". If MOLT-4 cells and MOLT-4/HIVHT LV II IB cells are separately cultured, the rates are 4.5 and 3.3% respectively, but it increased up to 18.5% when they are co-cultured. When tannic acid-S was added to the mixed culture medium in a concentration of 5 μg/ml, the rate was reduced to 8.2%.
# [4] = tested on: HTLV-IIIB-infected MT-4 cells; experiment: Inhibitory effect of drugs on HIV-induced cell damage (trypan blue dye exclusion); assay type: cell-based
# Experimental: In this experiment, there were used human MT4 cells, a human T4-positive cell line carrying adult T-cell leukemia causative virus, HTLV-1 (Gann Monogr.,1982, Vol. 28, pp. 219 -228) and HTLF-IIIB which is one of the HIV strains.
# (§1) HTLV-IIIB-infected MT-4 cells were inoculated on RPMI 1640 culture mediums containing 10% heat-inactivated fetal calf serum, 100 IU/ml of penicillin and 100 μg/ml of streptomycin, to which tannic acid-S had been added in a variety of concentrations, in a cell number of 300,000/ml and were cultured at 37° C. in a carbon dioxide incubator. After the cultivation for three days, one half of the culture medium was withdrawn and the survival rate and the viable count (X 10^4 /ml) of the MT-4 cells in the medium were determined by a trypan blue dye exclusion test. To the remaining cultured cells, an equivalent amount of RPMI 1640 culture medium each containing the same amount of the drugs were added, the cultivation was further continued for additional 3 days and likewise the survival rate and the viable count were determined.
# [5] = tested on: HTLV-IIIB-non-infected MT-4 cells; experiment: Toxicity: influence on the proliferation of T cells; assay type: cell-based, human
# Experimental: as §1
# As in Experiment 1, there was observed the influence of the compounds (drugs) of the present invention on the proliferation of HTLV-IIIB-non-infected MT-4 cells. The results thus observed are listed on the following Tables XI to XIV. The numerical values in these Tables mean viable count (X 10^4 /ml) and those in parentheses mean survival rates.
# [6] = drug 50 μg/ml, culture period 3 days
# [7] = drug 50 μg/ml, culture period 6 days
# [8] = drug 100 μg/ml, culture period 3 days
# [9] = drug 100 μg/ml, culture period 6 days
# [10] = drug 200 μg/ml, culture period 3 days
# [11] = drug 200 μg/ml, culture period 6 days
# [12] = drug 400 μg/ml, culture period 3 days
# [13] = drug 400 μg/ml, culture period 6 days
substance,measurement,setting,value
"sodium salt of sulfuric acid ester of 1,2,3,4,6-penta-O-galloyl-β-D-glucose [Example 9]",RTase Inhibitory Effect (IC50),[1],< 0.096 µg/mL
sodium salt of ellagic acid sulfate [Ellagic acid-S],Ratio of fluorescent ray emitting cells to total cells,[2]; [6],< 1%
same,Ratio of fluorescent ray emitting cells to total cells,[2]; [7],90%
same,Ratio of fluorescent ray emitting cells to total cells,[2]; [8],< 1%
same,Ratio of fluorescent ray emitting cells to total cells,[2]; [9],6.4%
same,Ratio of fluorescent ray emitting cells to total cells,[2]; [10],< 1%
same,Ratio of fluorescent ray emitting cells to total cells,[2]; [11],< 1%
same,Ratio of fluorescent ray emitting cells to total cells,[2]; [12],0%
same,Ratio of fluorescent ray emitting cells to total cells,[2]; [13],< 1%
same,Rate of Giant Cell (cells of size not less than 20 μm),[3]; drug 25 μg/ml,15.1%
same,Rate of Giant Cell (cells of size not less than 20 μm),[3]; drug 50 μg/ml,17.0%
same,Rate of Giant Cell (cells of size not less than 20 μm),[3]; drug 100 μg/ml,13.0%
same,Rate of Giant Cell (cells of size not less than 20 μm),[3]; drug 200 μg/ml,9.5%
same,Viable count,[4]; [6],740000 mL⁻¹
same,survival rate,[4]; [6],82%
same,Viable count,[4]; [7],230000 mL⁻¹
same,survival rate,[4]; [7],43%
same,Viable count,[4]; [8],810000 mL⁻¹
same,survival rate,[4]; [8],84%
same,Viable count,[4]; [9],1.03e+06 mL⁻¹
same,survival rate,[4]; [9],78%
same,Viable count,[4]; [10],830000 mL⁻¹
same,survival rate,[4]; [10],87%
same,Viable count,[4]; [11],860000 mL⁻¹
same,survival rate,[4]; [11],83%
same,Viable count,[4]; [12],730000 mL⁻¹
same,survival rate,[4]; [12],82%
same,Viable count,[4]; [13],470000 mL⁻¹
same,survival rate,[4]; [13],89%
same,Viable count,[5]; [6],700000 mL⁻¹
same,survival rate,[5]; [6],84
same,Viable count,[5]; [7],1.37e+06 mL⁻¹
same,survival rate,[5]; [7],89
same,Viable count,[5]; [8],990000 mL⁻¹
same,survival rate,[5]; [8],87
same,Viable count,[5]; [9],1.09e+06 mL⁻¹
same,survival rate,[5]; [9],83
same,Viable count,[5]; [10],990000 mL⁻¹
same,survival rate,[5]; [10],83
same,Viable count,[5]; [11],1.04e+06 mL⁻¹
same,survival rate,[5]; [11],85
same,Viable count,[5]; [12],810000 mL⁻¹
same,survival rate,[5]; [12],84
same,Viable count,[5]; [13],700000 mL⁻¹
same,survival rate,[5]; [13],82
"sodium salt of sulfated 3,4,5- trigalloylquinic acid [Example 12]",RTase Inhibitory Effect (IC50),[1],9.2 µg/mL
